Laboratory results reported in the NIST ThermoML archive (doi:10.1021/je9002114).

Experiments:
[1] = 298.15 K; for surface tension liquid-gas: Ring tensiometer; for mass density: 101.33 kPa, Liquid
[2] = xn = mol fraction of the nth substance listed; settings: 298.15 K, Ring tensiometer

C1COCCO1 [1,4-dioxane]
[1]
Settings	mass density [kg/m3]	surface tension liquid-gas [mN/m]
–	1027.82	32.71

CCCCOC(C)=O [butyl ethanoate]
[1]
Settings	mass density [kg/m3]	surface tension liquid-gas [mN/m]
–	876.38	24.85

CCCCOC(C)=O [butyl ethanoate] + C1COCCO1
[2]
Settings	surface tension liquid-gas [mN/m]
x1 = 0.05	31.19
x1 = 0.0975	30.51
x1 = 0.1457	29.87
x1 = 0.1995	29.32
x1 = 0.2485	28.88
x1 = 0.2883	28.55
x1 = 0.3445	28.13
x1 = 0.3932	27.79
x1 = 0.4475	27.47
x1 = 0.4929	27.21
x1 = 0.5486	26.93
x1 = 0.592	26.69
x1 = 0.6429	26.45
x1 = 0.6933	26.2
x1 = 0.7466	25.97
x1 = 0.7954	25.8
x1 = 0.8438	25.56
x1 = 0.8901	25.36
x1 = 0.9419	25.16

CCCCOC(C)=O [butyl ethanoate] + CN(C)C=O
[2]
Settings	surface tension liquid-gas [mN/m]
x1 = 0.0508	35.02
x1 = 0.0995	33.45
x1 = 0.1441	32.35
x1 = 0.1809	31.7
x1 = 0.25	30.5
x1 = 0.2962	29.75
x1 = 0.3447	29.19
x1 = 0.3904	28.66
x1 = 0.4455	28.19
x1 = 0.4954	27.69
x1 = 0.5443	27.35
x1 = 0.5956	27.07
x1 = 0.648	26.66
x1 = 0.6993	26.36
x1 = 0.7466	26.16
x1 = 0.7935	25.81
x1 = 0.8467	25.65
x1 = 0.8983	25.47
x1 = 0.9464	25.26

CN(C)C=O [dimethylformamide]
[1]
Settings	mass density [kg/m3]	surface tension liquid-gas [mN/m]
–	943.81	36.98

CCCCCCOC(C)=O [hexyl ethanoate]
[1]
Settings	mass density [kg/m3]	surface tension liquid-gas [mN/m]
–	868.52	26.39

CCCCCCOC(C)=O [hexyl ethanoate] + C1COCCO1
[2]
Settings	surface tension liquid-gas [mN/m]
x1 = 0.0467	32.56
x1 = 0.0925	32.06
x1 = 0.1414	31.56
x1 = 0.1905	31.1
x1 = 0.2422	30.62
x1 = 0.2921	30.17
x1 = 0.3417	29.79
x1 = 0.3934	29.43
x1 = 0.4434	29.11
x1 = 0.495	28.81
x1 = 0.5433	28.56
x1 = 0.5962	28.29
x1 = 0.6408	28.09
x1 = 0.6859	27.91
x1 = 0.7406	27.71
x1 = 0.7981	27.52
x1 = 0.8426	27.38
x1 = 0.8954	27.22
x1 = 0.9448	27.12

CCCCCCOC(C)=O [hexyl ethanoate] + CN(C)C=O
[2]
Settings	surface tension liquid-gas [mN/m]
x1 = 0.0495	35.78
x1 = 0.0964	35.06
x1 = 0.1435	34.43
x1 = 0.198	33.72
x1 = 0.2432	33.16
x1 = 0.299	32.51
x1 = 0.349	31.96
x1 = 0.397	31.46
x1 = 0.444	31.02
x1 = 0.4969	30.57
x1 = 0.5461	30.12
x1 = 0.5945	29.72
x1 = 0.6434	29.35
x1 = 0.6908	29.01
x1 = 0.7457	28.61
x1 = 0.7896	28.31
x1 = 0.8466	27.99
x1 = 0.8951	27.67
x1 = 0.9494	27.41

CCCCCOC(C)=O [pentyl ethanoate]
[1]
Settings	mass density [kg/m3]	surface tension liquid-gas [mN/m]
–	870.17	25.21

CCCCCOC(C)=O [pentyl ethanoate] + C1COCCO1
[2]
Settings	surface tension liquid-gas [mN/m]
x1 = 0.05	32.35
x1 = 0.1026	31.65
x1 = 0.1516	31.05
x1 = 0.2062	30.52
x1 = 0.2562	30.05
x1 = 0.311	29.48
x1 = 0.3637	29.01
x1 = 0.4209	28.58
x1 = 0.4616	28.27
x1 = 0.5112	27.92
x1 = 0.5614	27.55
x1 = 0.6136	27.3
x1 = 0.6558	27.07
x1 = 0.7043	26.89
x1 = 0.7538	26.71
x1 = 0.8033	26.56
x1 = 0.8511	26.39
x1 = 0.8956	26.26
x1 = 0.9449	26.12

CCCCCOC(C)=O [pentyl ethanoate] + CN(C)C=O
[2]
Settings	surface tension liquid-gas [mN/m]
x1 = 0.05	34.9
x1 = 0.0941	34.08
x1 = 0.1466	33.24
x1 = 0.198	32.24
x1 = 0.2452	31.67
x1 = 0.2909	30.99
x1 = 0.3496	30.37
x1 = 0.3978	29.95
x1 = 0.4481	29.3
x1 = 0.4998	28.87
x1 = 0.5453	28.59
x1 = 0.5998	28.05
x1 = 0.6445	27.78
x1 = 0.6901	27.39
x1 = 0.7499	27.09
x1 = 0.7958	26.83
x1 = 0.8477	26.51
x1 = 0.8965	26.23
x1 = 0.9397	26.09
